The values below come from US20250250230A1, “HETEROCYCLIC COMPOUND” (TAKEDA PHARMACEUTICAL COMPANY LIMITED, priority 2022, published 2025).

The test deals with T1, human orexin type 2 receptor (Homo sapiens, UniProt O43614).
T1 construct: expressed in transfected cells
T1 sequence (O43614 1-444): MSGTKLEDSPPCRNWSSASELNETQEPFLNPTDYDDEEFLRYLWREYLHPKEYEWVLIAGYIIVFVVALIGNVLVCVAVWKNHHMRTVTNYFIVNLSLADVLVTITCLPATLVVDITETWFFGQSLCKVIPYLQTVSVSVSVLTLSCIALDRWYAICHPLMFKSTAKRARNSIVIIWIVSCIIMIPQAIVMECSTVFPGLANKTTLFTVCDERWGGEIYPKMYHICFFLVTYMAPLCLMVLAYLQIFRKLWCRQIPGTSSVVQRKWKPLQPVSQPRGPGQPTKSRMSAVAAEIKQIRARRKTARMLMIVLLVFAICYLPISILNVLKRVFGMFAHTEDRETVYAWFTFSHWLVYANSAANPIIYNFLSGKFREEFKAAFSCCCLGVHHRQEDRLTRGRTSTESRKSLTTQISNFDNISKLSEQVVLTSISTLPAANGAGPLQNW
Kind of test: Measurement of orexin type 2 receptor agonist activity (calcium fluorescence, Fluo-4 AM, FDSS). As to conditions: test compound 3 μM; CHO cells expressing human OX2 receptor; DMSO = 0%, orexin A (human) = 100%. The class given is cell-based. The method, boiled down: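 CHO-K1 cells stably expressing human OX2R were loaded with Fluo-4 AM (30 min 37 °C, 30 min RT) in HEPES-buffered HBSS with 0.1% BSA and probenecid. Calcium fluorescence was followed on FDSS for 2 min after compound addition; activity normalised to DMSO (0%) and 10 nM orexin A (100%).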
In the case of `CCNS(=O)(=O)NC[C@@H]1[C@H](F)CN1C(=O)[C@@H]1C[C@@]1(F)c1ccc(F)cc1-c1c(F)cccc1F` [Example 427, N-ethyl-N′-({(2R,3R)-3-fluoro-1-[(1S,2S)-2-fluoro-2-(2′,5,6′-trifluoro[1,1′-biphenyl]-2-yl)cyclopropane-1-carbonyl]azetidin-2-yl}methyl)sulfuric diamide], the “OX2R agonist activity (3 μM, %)” value worked out at 96%.

On to `CS(=O)(=O)NC[C@@H]1[C@H](F)CN1C(=O)C1(CC#N)CC1c1ccccc1-c1c(F)cccc1F` (stereo partly drawn) [Example 428, N-({(2R,3R)-1-[(1R,2R)-1-(cyanomethyl)-2-(2′,6′-difluoro[1,1′-biphenyl]-2-yl)cyclopropane-1-carbonyl]-3-fluoroazetidin-2-yl}methyl)methanesulfonamide, or N-({(2R,3R)-1-[(1S,2S)-1-(cyanomethyl)-2-(2′,6′-difluoro[1,1′-biphenyl]-2-yl)cyclopropane-1-carbonyl]-3-fluoroazetidin-2-yl}methyl)methanesulfonamide], for which the “OX2R agonist activity (3 μM, %)” value amounted to 53%.

For `O=C([C@@H]1C[C@@]1(F)c1ccc(F)cc1-c1c(F)cccc1F)N1C[C@@H](F)[C@H]1CNS(=O)(=O)C1CC1` [Example 429, N-({(2R,3R)-3-fluoro-1-[(1S,2S)-2-fluoro-2-(2′,5,6′-trifluoro[1,1′-biphenyl]-2-yl)cyclopropane-1-carbonyl]azetidin-2-yl}methyl)cyclopropanesulfonamide], the “OX2R agonist activity (3 μM, %)” value came to 99%.

Consider `O=C([C@@H]1C[C@@]1(F)c1ccc(F)cc1-c1c(F)cccc1F)N1C[C@@H](F)[C@H]1CNS(=O)(=O)CF` [Example 430, 1-fluoro-N-({(2R,3R)-3-fluoro-1-[(1S,2S)-2-fluoro-2-(2′,5,6′-trifluoro[1,1′-biphenyl]-2-yl)cyclopropane-1-carbonyl]azetidin-2-yl}methyl)methanesulfonamide], for which the “OX2R agonist activity (3 μM, %)” value is 92%.

With `O=C([C@@H]1C[C@@]1(F)c1ccc(F)cc1-c1c(F)cccc1F)N1C[C@@H](F)[C@H]1CNS(=O)(=O)CBr` [Example 431, 1-bromo-N-({(2R,3R)-3-fluoro-1-[(1S,2S)-2-fluoro-2-(2′,5,6′-trifluoro[1,1′-biphenyl]-2-yl)cyclopropane-1-carbonyl]azetidin-2-yl}methyl)methanesulfonamide], the “OX2R agonist activity (3 μM, %)” value was found to be 95%.

For `CCCS(=O)(=O)NC[C@@H]1[C@H](F)CN1C(=O)[C@@H]1C[C@@]1(F)c1ccc(F)cc1-c1c(F)cccc1F` [Example 433, N-({(2R,3R)-3-fluoro-1-[(1S,2S)-2-fluoro-2-(2′,5,6′-trifluoro[1,1′-biphenyl]-2-yl)cyclopropane-1-carbonyl]azetidin-2-yl}methyl)propane-1-sulfonamide], the “OX2R agonist activity (3 μM, %)” value stood at 95%.

Consider `CS(=O)(=O)NC[C@@H]1CCN1C(=O)C1(CO)CC1c1ccc(F)cc1-c1c(F)cccc1F` (stereo partly drawn) [Example 434, N-({(2S)-1-[(1R,2S)-1-(hydroxymethyl)-2-(2′,5,6′-trifluoro[1,1′-biphenyl]-2-yl)cyclopropane-1-carbonyl]azetidin-2-yl}methyl)methanesulfonamide, or N-({(2S)-1-[(1S,2R)-1-(hydroxymethyl)-2-(2′,5,6′-trifluoro[1,1′-biphenyl]-2-yl)cyclopropane-1-carbonyl]azetidin-2-yl}methyl)methanesulfonamide], for which the “OX2R agonist activity (3 μM, %)” value was 96%.

Take `COCC1(C(=O)N2CC[C@H]2CNS(C)(=O)=O)CC1c1ccc(F)cc1-c1c(F)cccc1F` (stereo partly drawn) [Example 435, N-({(2S)-1-[(1R,2S)-1-(methoxymethyl)-2-(2′,5,6′-trifluoro[1,1′-biphenyl]-2-yl)cyclopropane-1-carbonyl]azetidin-2-yl}methyl)methanesulfonamide, or N-({(2S)-1-[(1S,2R)-1-(methoxymethyl)-2-(2′,5,6′-trifluoro[1,1′-biphenyl]-2-yl)cyclopropane-1-carbonyl]azetidin-2-yl}methyl)methanesulfonamide]: the “OX2R agonist activity (3 μM, %)” value came out at 101%.

Turning to `COCC1(C(=O)N2C[C@@H](F)[C@H]2CNS(C)(=O)=O)CC1c1ccc(F)cc1-c1c(F)cccc1F` (stereo partly drawn) [Example 436, N-({(2R,3R)-3-fluoro-1-[(1R,2S)-1-(methoxymethyl)-2-(2′,5,6′-trifluoro[1,1′-biphenyl]-2-yl)cyclopropane-1-carbonyl]azetidin-2-yl}methyl)methanesulfonamide, or N-({(2R,3R)-3-fluoro-1-[(1S,2R)-1-(methoxymethyl)-2-(2′,5,6′-trifluoro[1,1′-biphenyl]-2-yl)cyclopropane-1-carbonyl]azetidin-2-yl}methyl)methanesulfonamide], the “OX2R agonist activity (3 μM, %)” value is 99%.

Turning to `CCS(=O)(=O)NC[C@@H]1[C@H](F)CN1C(=O)C1(COC)CC1c1ccc(F)cc1-c1c(F)cccc1F` (stereo partly drawn) [Example 437, N-({(2R,3R)-3-fluoro-1-[(1R,2S)-1-(methoxymethyl)-2-(2′,5,6′-trifluoro[1,1′-biphenyl]-2-yl)cyclopropane-1-carbonyl]azetidin-2-yl}methyl)ethanesulfonamide, or N-({(2R,3R)-3-fluoro-1-[(1S,2R)-1-(methoxymethyl)-2-(2′,5,6′-trifluoro[1,1′-biphenyl]-2-yl)cyclopropane-1-carbonyl]azetidin-2-yl}methyl)ethanesulfonamide], the “OX2R agonist activity (3 μM, %)” value is reported as 99%.

Turning to `CNS(=O)(=O)NC[C@@H]1[C@H](F)CN1C(=O)C1(COC)CC1c1ccc(F)cc1-c1c(F)cccc1F` (stereo partly drawn) [Example 438, N-({(2R,3R)-3-fluoro-1-[(1R,2S)-1-(methoxymethyl)-2-(2′,5,6′-trifluoro[1,1′-biphenyl]-2-yl)cyclopropane-1-carbonyl]azetidin-2-yl}methyl)-N′-methylsulfuric diamide, or N-({(2R,3R)-3-fluoro-1-[(1S,2R)-1-(methoxymethyl)-2-(2′,5,6′-trifluoro[1,1′-biphenyl]-2-yl)cyclopropane-1-carbonyl]azetidin-2-yl}methyl)-N′-methylsulfuric diamide], the “OX2R agonist activity (3 μM, %)” value is reported as 101%.

For `CCS(=O)(=O)NC[C@@H]1[C@H](F)CN1C(=O)C1CC1(F)c1ccc(F)cc1-c1ccccc1Cl` (stereo partly drawn) [Example 440, N-({(2R,3R)-1-[(1R,2R)-2-(2′-chloro-5-fluoro[1,1′-biphenyl]-2-yl)-2-fluorocyclopropane-1-carbonyl]-3-fluoroazetidin-2-yl}methyl)ethanesulfonamide, or N-({(2R,3R)-1-[(1S,2S)-2-(2′-chloro-5-fluoro[1,1′-biphenyl]-2-yl)-2-fluorocyclopropane-1-carbonyl]-3-fluoroazetidin-2-yl}methyl)ethanesulfonamide], the “OX2R agonist activity (3 μM, %)” value came out at 91%.

As for `CCS(=O)(=O)NC[C@@H]1[C@H](F)CN1C(=O)C1CC1(F)c1ccccc1-c1ccccc1Cl` (stereo partly drawn) [Example 441, N-({(2R,3R)-1-[(1R,2R)-2-(2′-chloro[1,1′-biphenyl]-2-yl)-2-fluorocyclopropane-1-carbonyl]-3-fluoroazetidin-2-yl}methyl)ethanesulfonamide, or N-({(2R,3R)-1-[(1S,2S)-2-(2′-chloro[1,1′-biphenyl]-2-yl)-2-fluorocyclopropane-1-carbonyl]-3-fluoroazetidin-2-yl}methyl)ethanesulfonamide], the “OX2R agonist activity (3 μM, %)” value is on record as 90%.

`CCS(=O)(=O)NC[C@@H]1[C@H](F)CN1C(=O)C1CC1(F)c1ccccc1-c1ccccc1F` (stereo partly drawn) [Example 442, N-({(2R,3R)-3-fluoro-1-[(1R,2R)-2-fluoro-2-(2′-fluoro[1,1′-biphenyl]-2-yl)cyclopropane-1-carbonyl]azetidin-2-yl}methyl)ethanesulfonamide, or N-({(2R,3R)-3-fluoro-1-[(1S,2S)-2-fluoro-2-(2′-fluoro[1,1′-biphenyl]-2-yl)cyclopropane-1-carbonyl]azetidin-2-yl}methyl)ethanesulfonamide]: the “OX2R agonist activity (3 μM, %)” value was found to be 100%.

Turning to `CNS(=O)(=O)NC[C@@H]1[C@H](F)CN1C(=O)[C@@H]1C[C@@]1(F)c1ccc(Cl)cc1-c1c(F)cccc1F` [Example 443, N-({(2R,3R)-1-[(1S,2S)-2-(5-chloro-2′,6′-difluoro[1,1′-biphenyl]-2-yl)-2-fluorocyclopropane-1-carbonyl]-3-fluoroazetidin-2-yl}methyl)-N′-methylsulfuric diamide], the “OX2R agonist activity (3 μM, %)” value was 100%.

For `CC(C)S(=O)(=O)NC[C@@H]1[C@H](F)CN1C(=O)[C@@H]1C[C@@]1(F)c1ccc(F)cc1-c1c(F)cccc1F` [Example 444, N-({(2R,3R)-3-fluoro-1-[(1S,2S)-2-fluoro-2-(2′,5,6′-trifluoro[1,1′-biphenyl]-2-yl)cyclopropane-1-carbonyl]azetidin-2-yl}methyl)propane-2-sulfonamide], the “OX2R agonist activity (3 μM, %)” value is 96%.

On to `O=C([C@@H]1C[C@@]1(F)c1ccc(F)cc1-c1c(F)cccc1F)N1C[C@@H](F)[C@H]1CNS(=O)(=O)CC1CC1` [Example 445, 1-cyclopropyl-N-({(2R,3R)-3-fluoro-1-[(1S,2S)-2-fluoro-2-(2′,5,6′-trifluoro[1,1′-biphenyl]-2-yl)cyclopropane-1-carbonyl]azetidin-2-yl}methyl)methanesulfonamide], for which the “OX2R agonist activity (3 μM, %)” value is 76%.
